From patent US7341752B2, “Antibacterial treatment and composition” (Academia Sinica, priority 2005, dated 2008) come the findings set out here.

This assay relates to pathogenic Listeria bacteria. Nature of the assay: Prevention of Listeria infection in mice (centaurein given before infection), cumulative survival. The assay is classed as in vivo, C57BL/6J mice. To be noted: 20 μg per capita intraperitoneally 24 h before 1-2×10^6 Listeria i.p.; ten days after Listeria injection. The procedure: Six-to-eight week-old C57BL/6J mice were injected intraperitoneally with centaurein at a dose ranging from 0-20 μg per capita. After twenty four hours, the same mice were injected with pathogenic Listeria bacteria. A dose of 1-2×10^6 bacteria were introduced intraperitoneally (in a total volume of 0.2 ml) into each mouse. The cumulative survival rates of the mice were then determined. […] In contrast, only 10% of the mice that were injected with Listeria and not treated with centaurein survived. Thus, centaurein protected the mice from a Listerial infection.

Regarding `COc1ccc(-c2oc3cc(O[C@@H]4O[C@H](CO)[C@@H](O)[C@H](O)[C@H]4O)c(OC)c(O)c3c(=O)c2OC)cc1O` [centaurein], the “cumulative survival of mice” value was “all of the mice”.
